The subject of data set [1] is mitochondria of C. albicans biofilm cells. Briefly: Mitochondrial activity, MitoTracker Orange / MitoTracker Green. It counts as cell-based, Candida albicans. The conditions noted are these: 50 μM ΔM3, 6.2 μM ΔM4 or 2.7 μM amphotericin B, 3 h, 24-h biofilm. The protocol: The 24-h biofilms of C. albicans were incubated with 100 μl of ΔM3 (50 μM) or ΔM4 (6.2 μM) and amphotericin B (2.7 μM; positive control) solutions in RPMI 1640 medium for 3 h at 37°C. After that time, biofilms were washed with 200 μl of PBS and incubated for 30 min at 37°C with MitoTracker Green TM dye (Invitrogen) at final concentration of 500 nM, used to detect the change in total mitochondrial mass, and MitoTracker Orange (500 nM), used to detect the change in mitochondrial activity. Mitochondria were imaged in the FITC and TRIC channel, using the Olympus IX73 microscope.

A further data set has as its system C. albicans cells. Briefly: microbe, parasite or virus in culture. To be noted: for IC90: 24 h; for FICI: combination of peptide with caspofungin. The method, then:
To determine the viability of C. albicans, the 2,3-bis(2-methoxy-4-nitro-5-sulfo-phenyl)-2H-tetrazolium-5-carboxanilide (XTT) (ThermoFisher Scientific) reduction assay is used as a routine tool for quantitative measurement of fungal metabolic activity, growth and response to antifungal treatment ([van Dijck et al., 2018]). The tests were performed as described ([Kulig et al., 2022]) with some modifications. Briefly, 100 μl of RPMI 1640 medium without phenol red (Biowest) and 50 μl of XTT solution (1 mg/ml; Invitrogen, Waltham, MA, United States), freshly activated with phenazine methosulfate (5 μg/ml; Sigma-Aldrich) in the same medium, were added to C. albicans cells. After 40 min of incubation at 37°C in the dark, 100 μl of supernatants were transferred to the wells of a new 96-well microplate (Sarstedt, Nümbrecht, Germany). The absorbance of the formazan product was measured spectrophotometrically at 450 nm using a Synergy H1 microplate reader (BioTek Instruments, Winooski, VT, United States).
The following concentrations of peptides and antifungal drugs were used for the assay: ΔM3 0.4–50 μM, ΔM4 0.4–3.1 μM, amphotericin B 0.2–1.6 μM, fluconazole 0.2–1.6 μM and caspofungin 0.003–0.2 μM (the latter two from Sigma-Aldrich). The combinatory effects of each peptide and each conventional antimycotic drug were tested by the previously described checkerboard method ([Guo et al., 2008]; [Do Nascimento Dias et al., 2020]) with minor modification. C. albicans cells (3 × 10^2) were suspended in 100 μl of RPMI 1640 medium, containing peptide, drug, or their combination, in wells of Falcon® 96-well clear flat bottom TC-treated culture microplate (Corning). Fungal cells only in RPMI 1640 medium without peptides and drugs served as a control. Incubation was carried out for 24 h at 37°C in an atmosphere of 5% CO2 and 95% humidity without shaking. After this time, cell viability was measured using an XTT reduction assay. The analysis was performed in biological triplicate. For each combination, Fractional Inhibitory Concentration Index (FICI) was determined using the following formula: […]
Where FICa is the ratio of IC90 value for the compound a in combination to the IC90 value of the agent a alone; FICb is the ratio of IC90 value for compound b in combination to the IC90 value of the agent b alone.
The FICI ≤0.5 was interpreted as a synergistic effect, 0.5< FICI ≤1.0 as additive, 1.0< FICI ≤2.0 as indifferent and FICI >2.0 as antagonism.

The next data set concerns human erythrocytes. To be noted: cited from earlier work. The text has this:
Promising antimicrobial properties were also previously reported for the cecropin D-like peptide (UniProtKB accession number: P85210) from the greater wax moth Galleria mellonella ([Cytrynska et al., 2007]). Modification of particular residues resulting in an increase of peptide charge and basic residues on the polar face of the molecule compared to a neutral wild-type peptide, enhanced the antibacterial activity of peptides derived from the cecropin D-like natural sequence. One such type of derivative was the synthetic cationic peptide ΔM2 with 39 amino acid residues and a charge of +9, which ...

The test system of data set [2] is cytosolic Ca2+ in C. albicans biofilm. Briefly: Cytosolic Ca2+, Fura-2 Calcium Flux Assay. The conditions noted are these: 10 mM, positive control, 3 h, 24-h biofilm. It counts as cell-based, Candida albicans. The protocol: Accumulation of cytosolic Ca^2+ was measured with the Fura-2 Calcium Flux Assay Kit (Abcam, Cambridge, Great Britain). The 24-h biofilms of C. albicans were incubated for 3 h with 100 μl of ΔM3 (25 μM and 50 μM) or ΔM4 (6.2 μM and 12.5 μM) and H2O2 (10 mM; positive control) solutions prepared in RPMI 1640. The concentration of peptides was chosen close to those for which the effect of apoptosis was obtained in experiments analyzing the activity of metacaspases. After incubation, biofilms were washed with Hanks Balanced Salt Solution (Biowest) with Pluronic® F127 Plus (Abcam). Then 100 μl of Fura-2 AM solution was added to the biofilms and incubated for 1 h at room temperature. The fluorescence was then measured using a Synergy H1 microplate reader with excitation at 340 nm and emission at 510 nm.
(A change in cytosolic calcium serves as a functional read-out for many receptors and channels.)

The mark [3] stands for this setting: Candida albicans, read-out: IC90, compound acting alone.
Setting [4] is: drug (compound a) in combination with ΔM3.
[5] abbreviates: drug (compound a) in combination with ΔM4.

Like-named read-outs stand apart in the source and are kept apart here. Where no end group is shown, it is not given here.

Consider `C[C@@H]1[C@H](O)[C@@H](C)/C=C/C=C/C=C/C=C/C=C/C=C/C=C/[C@H](O[C@@H]2O[C@H](C)[C@@H](O)[C@H](N)[C@@H]2O)C[C@@H]2O[C@](O)(C[C@@H](O)C[C@@H](O)[C@H](O)CC[C@@H](O)C[C@@H](O)CC(=O)O[C@H]1C)C[C@H](O)[C@H]2C(=O)O` [Amphotericin B, amphotericin B], for which the “mitochondrial activity (MitoTracker Orange fluorescence)” value in data set [1] is recorded as “partial loss of mitochondrial activity”. For the same compound, the IC90 (usually the point of the concentration-response curve where the effect stands at 90%) in the data set on C. albicans cells (setting [3]) was found to be 1.6 µM. Further, the FICa in the data set with C. albicans cells (setting [4]) and in the data set on C. albicans cells (setting [5]) was 0.5 throughout.

Regarding NFFKRIRRAWKRIWKWIYSA [ΔM4], in the data set with C. albicans cells (cells), the IC90 was 3.1 µM. For the same compound, the FICI in the data set with C. albicans cells worked out at 0.370.

As for NFFKRIRRAGKRIRKAIISA [ΔM3], the hemolytic activity entry in the data set with human erythrocytes is listed as “low”. In addition, in the data set with C. albicans cells (cells), the IC90 turned out to be 50 µM. Also, in the data set with C. albicans cells, the FICI was determined as 0.062.

Turning to `CC[C@H](C)C[C@H](C)CCCCCCCCC(=O)N[C@H]1C[C@@H](O)[C@@H](NCCN)NC(=O)[C@@H]2[C@@H](O)CCN2C(=O)[C@H]([C@H](O)CCN)NC(=O)[C@H]([C@H](O)[C@@H](O)c2ccc(O)cc2)NC(=O)[C@@H]2C[C@@H](O)CN2C(=O)[C@H]([C@@H](C)O)NC1=O` [Caspofungin, caspofungin], the IC90 in the data set with C. albicans cells (setting [3]) stood at 0.1 µM. The FICa in the data set with C. albicans cells (setting [4]) is 0.03; in the data set on C. albicans cells (setting [5]), 0.12.

Regarding `OO` [H2O2], the “increase in cytosolic Ca2+ concentration” value in data set [2] is on record as “up to 50%”.

For `OC(Cn1cncn1)(Cn1cncn1)c1ccc(F)cc1F` [Fluconazole, fluconazole], the IC90 in the data set with C. albicans cells (setting [3]) came to 0.8 µM. Further, in the data set on C. albicans cells (combination with ΔM3 or ΔM4), the “IC90 in combination with each peptide compared to administered alone” value is recorded as “four-fold lower”. Also, the FICa with C. albicans cells (setting [4]) and in the data set on C. albicans cells (setting [5]) was 0.25 each time.

The values above are taken from PMC9880178, “Cecropin D-derived synthetic peptides in the fight against Candida albicans cell filamentation and biofilm formation” (Frontiers in Microbiology, 2023).
